Earlier results as cited in patent publication US7459141B2, “Technetium-99m-labeled organic germanium nanocolloids, method of preparing the same and use thereof” (Korea Atomic Energy Research Institute, priority 2006, dated 2008).

O=C(O)C[CH2][Ge](=[O])[O][Ge](=[O])[CH2]CC(=O)O [Ge-132, bis-carboxyethylgermanium sesquioxide]
tissue concentration after an intravenous (i.v) injection (intravenous): concentrates in liver, kidney, spleen and gastrointestine tract
tissue concentration after an oral administration (oral): concentrates highly in spleen
